Results on three compounds are retold here after paper PMC8621276, “Artemisinin Binds and Inhibits the Activity of Plasmodium falciparum Ddi1, a Retroviral Aspartyl Protease” (Pathogens, 2021).

Structures are written as SMILES.

Holding throughout (type): biochemical
In assay [1] the target is T1, PfDdi1 (Plasmodium falciparum, UniProt Q8IM03).
T1 construct: gene PF3D7_1409300; full length (382 aa), His-tagged (pET-28b NcoI/XhoI), E. coli Rosetta (DE3), Ni-NTA; ~44 kDa plus processed ~34 kDa fragment
T1 sequence (Q8IM03 1-382): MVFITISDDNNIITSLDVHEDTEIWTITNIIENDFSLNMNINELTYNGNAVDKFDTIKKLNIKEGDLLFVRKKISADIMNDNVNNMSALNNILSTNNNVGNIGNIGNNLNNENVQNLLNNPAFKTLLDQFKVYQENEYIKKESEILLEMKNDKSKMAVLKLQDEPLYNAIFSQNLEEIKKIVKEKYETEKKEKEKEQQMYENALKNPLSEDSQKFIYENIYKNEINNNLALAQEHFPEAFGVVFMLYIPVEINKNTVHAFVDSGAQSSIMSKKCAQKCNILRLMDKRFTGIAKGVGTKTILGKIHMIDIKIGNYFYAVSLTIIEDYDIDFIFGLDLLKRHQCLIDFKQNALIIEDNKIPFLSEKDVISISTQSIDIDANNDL
The assay can be described thus: inhibition of FRET peptide cleavage.

Assay [2] concerns the target T1, PfDdi1. The assay can be described thus: inhibition of FRET peptide, AMC peptide and K48 polyubiquitin cleavage. The note with it: 10 min preincubation, sodium acetate pH 5.0, 37 °C, 2.0 μM enzyme.
The target in assay [3] is T1, PfDdi1. The assay can be described thus: inhibition of fluorogenic peptide cleavage.

As usually defined, the inhibition is the share of the control response that was lost under treatment. A higher inhibition goes with a response far below the control. As for `C[C@@H]1CC[C@H]2[C@@H](C)C(=O)O[C@@H]3O[C@@]4(C)CC[C@@H]1[C@]32OO4` [ART, artemisinin], the inhibition at 1 µM against PfDdi1 [1] is 71.4%.
For the compound `C[C@@H]1CC[C@H]2[C@@H](C)C(O)O[C@@H]3O[C@@]4(C)CC[C@@H]1[C@]32OO4` (stereo partly drawn) [DHA, Dihydroartemisinin], the “% inhibition at 1 μM” value at PfDdi1 [2] was “artemisinin and its derivative, DHA, significantly inhibited the ability of PfDdi1 to degrade the polyubiquitinated”.
On to `Cc1cccc(C)c1OCC(=O)N[C@@H](Cc1ccccc1)[C@@H](O)C[C@H](Cc1ccccc1)NC(=O)[C@H](C(C)C)N1CCCNC1=O` [LPV, Lopinavir], for which, at PfDdi1 [3], the inhibition at 50 µM was about 23.5%.
